Values joined by “and” are separate entries in the source; they are usually repeats but may differ in a detail not shown here. Equal values may be shown once.
Test system: AMO-1 xenografts
Assay: AMO-1 xenograft efficacy (tumor volume, body weight)
Format: in vivo, mouse
Method: All animal studies were conducted in accordance with the guidelines approved by the Institutional Animal Care and Use Committees of AbbVie. The research protocol was approved by In Vivo Pharmacology at AbbVie prior to study initiation but was not publicly registered or disclosed. Female C.B-17 SCID-beige mice (AMO-1, OPM-2, NCI-H929, and OCI-AML2 xenografts) and female NSG mice (MV4-11-Red.Fluc systemic) were purchased from Charles River Laboratories (Wilmington, MA). Animals were housed in a light cycle-controlled room with HEPA filtration at 22 °C. Animals had nesting and climbing cage topper as the primary environmental enrichment. Animals were inoculated subcutaneously in the right flank with 5 × 10^6 (AMO-1, OPM-2, NCI-H929, and OCI-AML2) or intravenous (IV) with 5 × 10^6 (MV4-11-Red.Fluc). The inoculation volume (0.2 mL) comprised a 50:50 mixture of cells in growth media and Matrigel (BD Biosciences) for subcutaneous injections and 100% phosphate-buffered saline for IV administration. All cell lines used in this publication were authenticated using IDEXX for STR profiling as well as their IMPACT and human IMPACT panels for pathogen screening. Electronic calipers were used to measure the length and width of each tumor 2 to 3 times per week. Tumor volume was estimated by applying the following equation: volume = length × width^2/2. All groups remained blinded during measurements and dosing; only veterinary staff were aware of group identity. When tumors reached approximately 200 mm^3, mice were randomized by match and distributed into treatment and control groups. All xenograft trials were conducted using 5 to 10 mice per group, and all mice were ear tagged and monitored individually throughout the studies. […] Tumor burden in the systemic MV4-11-Red.Fluc experiment was measured using an IVIS® spectrum from PerkinElmer by taking the total photon flux of the entire dorsal side of an individual mouse. […] A background control mouse that was tumor naive but received D-Luciferin was placed in the upper left corner of each image. The total flux from this animal was subtracted from the total flux of each animal present in the image.
For in vivo studies, maximal tumor growth inhibition (TGI) was calculated as the greatest treatment response using the following equation: Maximal TGI = (1 − mean tumor volume of the treated group/mean tumor volume of the vehicle control group) × 100. The tumor growth delay (TGD) percentage was determined as the percentage increase of the median time period for the treatment group to reach an arbitrary tumor volume of 1000 mm^3 relative to the vehicle control group. […] A power analysis was conducted using historical data to determine the number of animals required to yield significance of 0.05 at a 30% difference. […] Data from experiments in vivo were analyzed using the student’s t-test for TGI values and the Mann–Whitney U test for TGD using Excel and GraphPad Prism. Fisher’s exact test was used to probe significance of differences in response frequency.

[1] = 6.25 mg/kg Q7Dx2 IV, SCID-beige female mice, Day 26
[2] = 6.25 mg/kg Q7Dx2 IV, SCID-beige female mice, Day 28
[3] = 6.25 mg/kg Q7Dx2 IV, SCID-beige mice, Day 13 (measure date 10/25/2017, dosing begin 10/26/2017)
[4] = 6.25 mg/kg QDx1 IV, Day 26, n=8
[5] = 6.25 mg/kg QDx1 IV, Day 28, n=8
[6] = 6.25 mg/kg QDx1 IV, SCID-beige mice, Day 21
[7] = 6.25 mg/kg QDx1 IV, SCID-beige mice, Day 23
[8] = 6.25 mg/kg QDx1 IV, SCID-beige mice, Day 23, mean(T)/mean(C)
[9] = 6.25 mg/kg QDx1 IV, SCID-beige mice, Day 23, median(T)/median(C)

With Cc1c(Cl)c2c(Cl)c(C)c1-c1c(-c3ccc(F)cc3)sc3ncnc(c13)O[C@@H](C(=O)O)Cc1cc(ccc1OCc1ccnc(-c3ccc(OC[C@H]4COCCO4)cc3)n1)OC[C@@H](CN1CCN(C)CC1)O2 [Compound A-1747745.0] the “Xenograft AMO-1 (DSMZ) tumor volume Day 24, Median” value (6.25 mg/kg Q7Dx2 IV, SCID-beige female mice, Day 24) was 183.76 mm³, the “Xenograft AMO-1 (DSMZ) tumor volume Day 26, Mean” value [1] was 300.68 mm³ and the “Xenograft AMO-1 (DSMZ) tumor volume Day 26, Median” value [1] was 173.91 mm³. The “Xenograft AMO-1 (DSMZ) tumor volume Day 26, individual animals” value [1] was 165 mm³ and 890 mm³ and 293 mm³ and 308 mm³ and 143 mm³ and 174 mm³ and 132 mm³, the “Xenograft AMO-1 (DSMZ) (mm³) Day 28, individual animals” value [2] was 242 mm³ and 1605 mm³ and 585 mm³ and 510 mm³ and 266 mm³ and 306 mm³ and 32 mm³ and the “Xenograft AMO-1 (DSMZ) Day 28 Mean” value [2] was 506.48 mm³. The “Xenograft AMO-1 (DSMZ) Day 28 Median” value [2] was 305.62 mm³, the “Xenograft AMO-1 (DSMZ) tumor volume Day 13, Mean” value [3] was 222.44 mm³ and the “Xenograft AMO-1 (DSMZ) tumor volume Day 13, Median” value [3] was 219.48 mm³. The “Xenograft AMO-1 (DSMZ) tumor volume Day 13, individual animals” value [3] was 230 mm³ and 206 mm³ and 247 mm³ and 219 mm³ (2×) and 232 mm³ and 204 mm³, the “Xenograft AMO-1 (DSMZ) (mm³) Day 32 Mean” value (6.25 mg/kg Q7Dx2 IV, group mean tumor volume, Day 32) was 1661.51 mm³ and the “Xenograft AMO-1 (DSMZ) (mm³) Day 32 Median” value (6.25 mg/kg Q7Dx2 IV, group median tumor volume, Day 32) was 1251.91 mm³. The “Xenograft AMO-1 (DSMZ) (mm³) Day 32” value (6.25 mg/kg Q7Dx2 IV, individual animal tumor volume, Day 32) was 1252 mm³ and 3313 mm³ and 2126 mm³ and 1223 mm³ and 2463 mm³ and 1036 mm³ and 218 mm³, the “Xenograft AMO-1 (DSMZ) tumor volume Day 26, Mean” value [4] was 454.97 mm³ and the “Xenograft AMO-1 (DSMZ) tumor volume Day 26, Median” value [4] was 392.97 mm³. The “% T/C (mean) tumor volume Day 26” value (6.25 mg/kg QDx1 IV, Day 26, mean(T)/mean(C)) was 28.88%, the “% T/C (median) tumor volume Day 26” value (6.25 mg/kg QDx1 IV, Day 26, median(T)/median(C)) was 24.60% and the “Xenograft AMO-1 (DSMZ) tumor volume Day 28, Mean” value [5] was 690.68 mm³. The “Xenograft AMO-1 (DSMZ) tumor volume Day 28, Median” value [5] was 578.26 mm³, the “% T/C (mean) tumor volume Day 28” value (6.25 mg/kg QDx1 IV, Day 28, mean(T)/mean(C)) was 33.71% and the “% T/C (median) tumor volume Day 28” value (6.25 mg/kg QDx1 IV, Day 28, median(T)/median(C)) was 29.98%. The “Xenograft AMO-1 (DSMZ) tumor volume Day 26, individual animals” value (6.25 mg/kg QDx1 IV, SCID-beige female mice, Day 26) was 386 mm³ and 701 mm³ and 245 mm³ and 206 mm³ and 598 mm³ and 235 mm³ and 868 mm³ and 400 mm³, the “Xenograft AMO-1 (DSMZ) tumor volume Day 28, individual animals” value (6.25 mg/kg QDx1 IV, SCID-beige female mice, Day 28) was 518 mm³ and 1122 mm³ and 542 mm³ and 307 mm³ and 666 mm³ and 511 mm³ and 1246 mm³ and 614 mm³ and the “Xenograft AMO-1 (DSMZ) Day 21, Mean” value [6] was 175.92 mm³. The “Xenograft AMO-1 (DSMZ) Day 21, Median” value [6] was 202.13 mm³, the “Xenograft AMO-1 (DSMZ) (mm³) Day 21, individual animals” value (6.25 mg/kg QDx1 IV, SCID-beige mice, Day 21, individual tumor volumes) was 202 mm³ (2×) and 236 mm³ and 49 mm³ and 84 mm³ and 144 mm³ and 230 mm³ and 260 mm³ and the “% T/C (mean), Tumor Volume Day 21” value (6.25 mg/kg QDx1 IV, SCID-beige mice, Day 21, mean(T)/mean(C)) was 27.52%. The “% T/C (median), Tumor Volume Day 21” value (6.25 mg/kg QDx1 IV, SCID-beige mice, Day 21, median(T)/median(C)) was 38.38%, the “Xenograft AMO-1 (DSMZ) Day 23 Mean” value [7] was 218.85 mm³ and the “Xenograft AMO-1 (DSMZ) Day 23 Median” value [7] was 225.89 mm³. The “Xenograft AMO-1 (DSMZ) (mm³) Day 23, individual animals” value (6.25 mg/kg QDx1 IV, SCID-beige mice, Day 23, individual tumor volumes) was 209 mm³ and 282 mm³ and 56 mm³ and 156 mm³ and 155 mm³ and 243 mm³ and 349 mm³ and 301 mm³, the “% T/C (mean), body weight Day 23” value [8] was 103.53% and the “% T/C (mean), tumor volume Day 23” value [8] was 20.49%. The “% T/C (median), body weight Day 23” value [9] was 103.53%, the “% T/C (median), tumor volume Day 23” value [9] was 23.21% and the “Xenograft AMO-1 (DSMZ) (mm³) Day 30 (individual animals)” value (6.25 mg/kg QDx1 IV, Day 30, SCID-beige female mice, tumor volume per animal) was 694 mm³ and 1347 mm³ and 555 mm³ and 384 mm³ and 801 mm³ and 782 mm³ and 1535 mm³ and 959 mm³. For the same molecule, the “Xenograft AMO-1 (DSMZ) (mm³) Day 30 Mean” value (6.25 mg/kg QDx1 IV, Day 30, group mean) was 882.20 mm³, the “Xenograft AMO-1 (DSMZ) (mm³) Day 30 Median” value (6.25 mg/kg QDx1 IV, Day 30, group median) was 791.67 mm³ and the “Xenograft AMO-1 (DSMZ) (mm³) Day 34 (individual animals)” value (6.25 mg/kg QDx1 IV, Day 34, SCID-beige female mice, tumor volume per animal) was 2680 mm³ and 1975 mm³ and 1296 mm³ and 886 mm³ and 1388 mm³ and 1259 mm³ and 1718 mm³ and 1542 mm³.

Reference: PMC10600239, “Selective MCL-1 inhibitor ABBV-467 is efficacious in tumor models but is associated with cardiac troponin increases in patients” (Communications Medicine, 2023)
